# Source: patent US20020028807A1, “Non-nucleoside reverse transcriptase inhibitors” (priority 2000, published 2002)
# Assays:
# HIV-1 RT wild-type (WT) = biological target: T1, HIV-1 RT wild-type (WT) (Human immunodeficiency virus type 1 group M subtype B, UniProt P03366); experiment: Reverse transcriptase (RT) assay, wild-type enzyme; type: biochemical
# T1 construct: an HIV RT clone pKRT2 containing only the RT p66 gene regulated by the lac operon/trc promoter; made in house; host or cells: E. coli JM109, vector pKK233-2
# HIV-1 RT K103N = biological target: T2, HIV-1 RT K103N (Human immunodeficiency virus type 1 group M subtype B, UniProt P03366, K702N); experiment: Reverse transcriptase (RT) assay, K103N mutant; type: biochemical
# T2 construct: an HIV RT clone pKRT2 containing only the RT p66 gene regulated by the lac operon/trc promoter; made in house; host or cells: E. coli JM109, vector pKK233-2
# In short: (§1)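 Cell-free assay in which recombinant mutant RT (HIV-1 IIIB clone BH10, made by site-directed mutagenesis) transcribes a radiolabelled DNA strand from a poly r(C) template primed with biotinylated oligo d(G), using 3H-dGTP as substrate. Inhibition is measured as reduced label incorporation, under conditions analogous to the wild-type enzyme assay.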
# HIV-1 RT G190A = biological target: T3, HIV-1 RT G190A (Human immunodeficiency virus type 1 group M subtype B, UniProt P03366, G789A); experiment: Reverse transcriptase (RT) assay, G190A mutant; type: biochemical
# T3 construct: an HIV RT clone pKRT2 containing only the RT p66 gene regulated by the lac operon/trc promoter; made in house; host or cells: E. coli JM109, vector pKK233-2
# Description: (§2) Among the enzymes for which Human Immunodeficiency Virus (HIV-1) encodes is a reverse transcriptase (1), so-named because it transcribes a DNA copy from an RNA template. This activity can be quantitatively measured in a cell-free enzyme assay and is based upon the observation that reverse transcriptase is able to use a synthetic template poly r(C) primed with a biotinylated oligo d(G) to transcribe a radio-labelled DNA strand utilising 3H-dGTP as a substrate. The assay described below utilises the wild-type enzyme (which is the predominant form of the enzyme observed in patients infected with HIV-1) and can also be used with mutant RT enzymes (for example, Y181C, prepared by site-directed mutagenesis in which the tyrosine residue at codon 181 has been replaced by a cysteine residue) in analogous assay conditions. This assay allows compounds to be evaluated for their effectiveness at inhibiting the mutant enzymes.
# (§3) Some HIV-1 IIIB clone BH10 RT mutants were provided by Dr. C.-K. Shih (Boehringer Ingelheim Pharmaceutials Inc., U.S.A.) in the vector pKK233-2 (Pharmacia). Briefly an HIV RT clone pKRT2 containing only the RT p66 gene regulated by the lac operon/trc promoter was obtained from Dr. W. Summers (Yale University) (2). A variety of specific amino acid substitutions were introduced into the wild-type RT gene by site-directed mutagenesis. RT clones were subcloned into the pKK233-2 bacterial expression vector. Clones provided included wild-type, Val106Ala, Tyr181Cys, Tyr188Cys, Tyr188Leu, Gly190Ala and Pro236Leu. Others were made in-house by site-directed mutagenesis of the pKK233-2 RT clones including Lys103Asn, Lys103Asn/Tyr181Cys, Lys103Asn/Leu100Ile, Lys103Asn/Pro225His, and Lys103Asn/Val108Ile.
# (§4) Purification of recombinant reverse transcriptase was performed using a combination of methods previously described (3). A single colony from a fresh plate of transformed JM109 cells was used to initiate growth of a pre-culture grown o/n at 37° C. Two liters of growth medium were inoculated with this pre-culture. At OD600˜1.5 (5-6 h at 37° C.), RT gene expression was induced with IPTG (1 mM final), and the fermentation was continued for a few more hours at 37° C. After centrifugation, supernatants were discarded while cell pellets were pooled and stored at −80° C. until purification. Cells were thawed at 4° C. overnight and suspended in lysis buffer (MES 50 mM pH 6, EDTA 1 mM, 10% v/v glyerol, 0.02% w/v OBG, 0.02% w/v sodium azide). Lysozyme was added and the mixture was incubated on ice for 40 minutes. After homogenization using a bounce in presence of lysozyme and sonication, the cells were centrifuged for 30 minutes. Supernatant (S1) was saved and stored at 4° C. The centrifuged pellet was resuspended in extraction buffer (MES 50 mM pH 6, KPO4 50 mM pH 6, KCl 100 mM, 10% v/v glycerol, 0.02% w/v OBG, 0.02% w/v sodium axide) and stirred for 30 minutes at 4° C. This second mixture was centrifuged again and the supernatant (S2) was saved. The above procedure was repeated 2 more times saving supernatants S3 and S4 and one last extraction was performed overnight (S5). Polymin P (0.005% final) was added to the combined supernatants to remove nucleic acids. This solution was stirred for 75 minutes at 4° C. and centrifuged for 1 h. The supernatant (SS1) was precipitated on ice with 20% w/v ammonium sulfate and stirred for 1 h at 4° C. The mixture was then centrifuged and the resulting supernatant (SS2) was precipitated with additional 40% w/v ammonium sulfate (60% total), stirred for 1 h and centrifuged again. The final pellet (P1) was stored overnight at 4° C. before undergoing purification the following day. All steps of the purification were performed at 4° C. unless otherwise stated.
# (§5) Pellet (P1) was resuspended into MES 50 mM pH 6, KPO4 10 mM pH 6, KCl 100 mM, 10% v/v glycerol, 0.02% w/v OBG, 0.02% w/v sodium azide. The suspension was dialysis against the same buffer overnight using 12-14 kD MWCO dialysis tubing. […]
# HIV-1 RT K103N/P225H = biological target: T4, HIV-1 RT K103N/P225H (Human immunodeficiency virus type 1 group M subtype B, UniProt P03366, K702N/P824H); experiment: Reverse transcriptase (RT) assay, K103N/P225H mutant; type: biochemical
# T4 construct: an HIV RT clone pKRT2 containing only the RT p66 gene regulated by the lac operon/trc promoter; made in house; host or cells: E. coli JM109, vector pKK233-2
# In short: as §1
# HIV-1 RT Y188C = biological target: T5, HIV-1 RT Y188C (Human immunodeficiency virus type 1 group M subtype B, UniProt P03366, Y787C); experiment: Reverse transcriptase (RT) assay, Y188C mutant; type: biochemical
# T5 construct: an HIV RT clone pKRT2 containing only the RT p66 gene regulated by the lac operon/trc promoter; made in house; host or cells: E. coli JM109, vector pKK233-2
# Description: as §2, §3, §4, §5
# [1] = tested on: HIV coding for wild-type reverse transcriptase (WT RT); experiment: ELISA (p24) assay of HIV replication in C8166 cell culture, wild-type RT virus; type: cell-based, HIV-1; details: Human immunodeficiency virus 1, C8166, 72 h, read-out: EC50 WT RT
# In short: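 C8166 T cells infected at MOI 0.001 with wild-type or mutant RT HIV, then grown 3 days with serial compound dilutions in RPMI 1640 + 10% FBS. Extracellular p24 in supernatant pooled from eight replica wells measured by ELISA; % inhibition calculated from p24 levels.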
# [2] = tested on: HIV coding for mutant reverse transcriptase Y181C; experiment: ELISA (p24) assay of HIV replication in C8166 cell culture, Y181C virus; type: cell-based, HIV-1; details: Human immunodeficiency virus 1, C8166, 72 h, read-out: EC50 Y181C
# Description: (§6) Compounds of the invention were tested for their ability to inhibit HIV replication in cell culture in a 96-well plate assay. Complete RPMI 1640, consisting of RPMI 1640+10% fetal bovine serum, 10 μg/ml gentamycin and 10 μM β-mercaptoethanol was used for dilution of the compound as well as cell growth medium. The T lymphocyte cell line C8166 was infected at a multiplicity of infection of 0.001 with viruses coding for wild-type and mutant reverse transcriptase. Cells were then incubated for three days in the presence of serial dilutions of the compounds of the invention. The supernatant was pooled from eight replica wells and the concentration of extracellular p24 was determined using a commercially available HIV-1 p24 antigen assay kit (Beckman-Coulter®). The level of inhibition (% inhibition) was calculated with the following equation: [formula]
# [3] = tested on: HIV coding for mutant reverse transcriptase Y188L; experiment: ELISA (p24) assay of HIV replication in C8166 cell culture, Y188L virus; type: cell-based, HIV-1; details: Human immunodeficiency virus 1, C8166, 72 h, read-out: EC50 Y188L
# Description: as §6
# [4] = tested on: HIV coding for mutant reverse transcriptase K103N/P225H; experiment: ELISA (p24) assay of HIV replication in C8166 cell culture, K103N/P225H virus; type: cell-based, HIV-1; details: Human immunodeficiency virus 1, C8166, 72 h, read-out: EC50 K103N/P225H
# Description: as §6
smiles,measurement,setting,value
"CCN1c2ncc(CCOc3cc[n+]([O-])c4ccccc34)cc2C(=O)N(C)c2ccc(F)nc21 [compound 11, 5,11-Dihydro-11-ethyl-2-fluoro-5-methyl-8-{2-{(1-oxido-4-quinolinyl)oxy}-ethyl}-6H-dipyrido[3,2-b:2′,3′-e][1,4]diazepin-6-one]",IC50,HIV-1 RT wild-type (WT),9.5 nM
same,IC50,HIV-1 RT K103N,18 nM
same,IC50,HIV-1 RT G190A,19 nM
same,IC50,HIV-1 RT K103N/P225H,15 nM
same,IC50,HIV-1 RT Y188C,6.6 nM
same,EC50,[1],0.34 nM
same,EC50,[2],4.1 nM
same,EC50,[3],52 nM
same,EC50,[4],2 nM
"CCN1c2ncc(CCOc3cc[n+]([O-])c4ccccc34)cc2C(=O)N(C)c2cccnc21 [compound 21, 5,11-Dihydro-11-ethyl-5-methyl-8-{2-{(1-oxido-4-quinolinyl)oxy}ethyl}-6H-dipyrido[3,2-b:2′,3′-e][1,4]diazepin-6-one]",IC50,HIV-1 RT wild-type (WT),17 nM
same,IC50,HIV-1 RT K103N,44 nM
same,IC50,HIV-1 RT G190A,26 nM
same,IC50,HIV-1 RT K103N/P225H,40 nM
same,IC50,HIV-1 RT Y188C,9.9 nM
same,EC50,[1],0.53 nM
same,EC50,[2],4.8 nM
same,EC50,[3],67 nM
same,EC50,[4],2.9 nM
"CCN1c2ncc(CCOc3cc[n+]([O-])c4ccccc34)cc2C(=O)N(C)c2ccc(Cl)nc21 [compound 17, 2-Chloro-5,11-dihydro-11-ethyl-5-methyl-8-{2-{(1-oxido-4-quinolinyl)oxy}-ethyl}-6H-dipyrido[3,2-b:2′,3′-e][1,4]diazepin-6-one]",IC50,HIV-1 RT wild-type (WT),14 nM
same,IC50,HIV-1 RT K103N,25 nM
same,IC50,HIV-1 RT G190A,25 nM
same,IC50,HIV-1 RT K103N/P225H,23 nM
same,IC50,HIV-1 RT Y188C,8.1 nM
same,EC50,[1],0.34 nM
same,EC50,[2],2.8 nM
same,EC50,[3],58 nM
same,EC50,[4],1.2 nM
